According to patent US20040063680A1, “Method of treating stroke” (priority 2003, published 2004):

CC(C)S(=O)(=O)NCC(C)(F)c1ccc(-c2ccc(CC#N)cc2)cc1 (stereo not shown) [Example 9, 2-{4-[4-(1-fluoro-1-methyl-2-{[(methylethyl)sulfonyl]amino}ethyl)phenyl]phenyl}ethanenitrile]
melting point: 155 to 157 °C
